Source: US10294212B2 (CURADEV PHARMA PRIVATE LTD., priority 2013, dated 2019)

Columns and labels:
[1] = target: IDO1 in HeLa cells (Homo sapiens (Human), UniProt P14902); assay: HeLa cell based IDO1 assay (IFNγ-induced, KYN in supernatant)
In short: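 HeLa cells were induced overnight with IFNγ (50 ng/mL), washed, then exposed to compound (typically 10 μM–1 nM) in HBSS with 80 μM L-tryptophan. Supernatant was TCA-treated at 65 °C for 15 min to convert N-formylkynurenine, and KYN was measured by HPLC-UV at 360 nm. IC50 came from nonlinear regression against a 1% DMSO control.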

[2] = target: Human TDO (hTDO)-transfected CHO-K1 cells (Homo sapiens (Human), UniProt P48775); assay: CHO-K1 cell based TDO assay; details: hTDO cellular assay
Sequence of Human TDO (hTDO)-transfected CHO-K1 cells (P48775 whole entry): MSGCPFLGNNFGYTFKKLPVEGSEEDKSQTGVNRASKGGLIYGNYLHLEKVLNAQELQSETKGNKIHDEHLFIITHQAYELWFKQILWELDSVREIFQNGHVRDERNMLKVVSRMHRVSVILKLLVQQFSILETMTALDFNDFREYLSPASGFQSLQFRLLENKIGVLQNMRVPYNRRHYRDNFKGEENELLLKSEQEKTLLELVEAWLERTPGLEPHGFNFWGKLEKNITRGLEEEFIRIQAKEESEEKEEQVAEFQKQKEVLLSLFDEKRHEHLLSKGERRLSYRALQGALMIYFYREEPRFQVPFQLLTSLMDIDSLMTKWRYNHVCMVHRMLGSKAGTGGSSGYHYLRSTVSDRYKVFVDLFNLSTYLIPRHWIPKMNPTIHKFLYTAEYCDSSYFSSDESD
In short: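 Stably hTDO-expressing CHO-K1 cells were exposed to compounds (typically 31 μM to 10 nM) in HBSS with 80 μM L-tryptophan for 2 h. TCA-treated supernatant was heated at 65° C for 15 min to convert N-formylkynurenine, then kynurenine was quantified by LC/MS/MS. IC50 came from percent inhibition versus DMSO control.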

[3] = tested on: CT-26 tumor cells; assay: Antitumor activity in syngeneic CT26/Balb/C tumor model; type: in vivo, Balb/c mice; details: for reduction of tumor growth: vs control animals
Description: Tumor volume reduction by the test compounds was evaluated in a syngeneic CT26/Balb/C tumor model as described below. Balb/c mice were purchased from Vivo Bio Tech, Hyderabad, India, and housed in sterile conditions using an individually ventilated caging system manufactured by Citizen Industries Limited, Ahmedabad, India. Mice were quarantined for at least 7 days before experimentation.
Mouse colorectal tumor forming cells, CT-26 cells (ATCC, USA), were cultured in DMEM and 10% FBS medium supplemented with lx non-essential amino acid (HiMedia) in an incubator maintained at 37QC with 95% humidity and 5% CO2. One million (1×10^6) live syngeneic CT-26 cells suspended in 0.2 ml of […] were injected subcutaneously in the right flank of each Balb/c mouse (age 6-8 weeks, weight: about 18-20 g) on day 1 under anesthesia. Eight to ten mice were used per experimental group. Subcutaneous cells formed localized tumors. Animals were visually inspected twice a day. Tumor measurements were initiated 7 days post injection using Vernier calipers. Tumor sizes at day 7 ranged typically from 80-150 mm^3. Tumor dimensions were subsequently measured every 3 to 4 days and tumor volume was determined. Assuming tumors to be ellipsoid, tumor volume was calculated using the formula: V=(D×d×d)/2
Where D is longest diameter in mm, and d is shortest diameter in mm.
When the average tumor volume in the mice reached 100-120 mm^3, tumor bearing mice were randomized for treatment with either test compound or vehicle alone. Test compounds were formulated generally in normal saline comprising Polyethylene Glycol (PEG400), Propylene glycol (PG) and Dimethyl Acetamide (DACM) at pH 4.5-5.0 and dosed orally at ranges 40-75 mg/kg (dose volume—5 mL/kg) twice a day. Solutions of the compounds were prepared immediately before dosing the animals. In general, tumor volume was measured at various times post-dosing from day 1 to day 34.
A non-limiting example is provided. Tumor bearing mice were dosed orally twice a day at 40 mg/kg body weight with either vehicle control or test compound 2 formulated in 30% Polyethylene Glycol (PEG-400), 20% Propylene glycol (PG) in normal saline. Tumors were measured and tumor volumes were determined at 1, 4, 6, 9, 11, and 14 days after the first dose as described above. Animals were sacrificed on day 14. Tumor and blood samples were harvested for further analysis. Just prior to animal sacrifice, blood was drawn retro-orbitally into a tube containing 0.2% EDTA for plasma collection. The harvested tumors were weighed and snap frozen in liquid nitrogen immediately. Plasma KYN concentrations are measured for pharmacokinetic analysis using LC/MS/MS using an API4000 mass spectrometer (Applied Biosystems) coupled to a Shimadzu Prominence LC system fitted with a C18 column.

Sequence of IDO1 in HeLa cells (P14902 whole entry): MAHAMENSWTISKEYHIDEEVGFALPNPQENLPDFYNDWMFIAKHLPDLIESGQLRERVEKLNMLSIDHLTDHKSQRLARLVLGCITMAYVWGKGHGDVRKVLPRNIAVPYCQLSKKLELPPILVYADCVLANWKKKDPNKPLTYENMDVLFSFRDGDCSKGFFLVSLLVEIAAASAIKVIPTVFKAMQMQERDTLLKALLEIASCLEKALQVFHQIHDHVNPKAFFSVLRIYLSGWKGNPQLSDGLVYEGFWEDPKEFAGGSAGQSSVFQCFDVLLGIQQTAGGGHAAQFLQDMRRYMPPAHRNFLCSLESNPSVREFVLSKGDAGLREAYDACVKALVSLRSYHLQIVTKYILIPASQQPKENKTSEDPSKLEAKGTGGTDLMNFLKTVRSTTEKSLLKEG

| IC50 [1] [nM] | IC50 [2] [nM] | SMILES | tumor growth ([3]; 40 mg/kg oral BID, over 14 days, vs vehicle) | reduction of tumor growth ([3]; 50 mg/kg oral BID) | reduction of tumor growth ([3]; 75 mg/kg oral BID) |
| --- | --- | --- | --- | --- | --- |
| < 200 | 500 to 2000 | Nc1oc2cnccc2c1Nc1ccc(F)c(Cl)c1 [Compound 2, N^3-(3-Chloro-4-fluoro-phenyl)-furo[2,3-c]pyridine-2,3-diamine] | significantly decreased tumor growth |  |  |
| < 200 | < 500 | Nc1oc2c(-c3ccncc3)nccc2c1Nc1ccc(F)c(F)c1 [Compound 184, N^3-(3,4-difluorophenyl)-7-(pyridin-4-yl)furo[2,3-c]pyridine-2,3-diamine] |  | 26%-38 |  |
| < 200 | < 500 | Nc1oc2c(-c3ccncc3)nccc2c1Nc1ccc(F)c(Cl)c1 [Compound 97, N^3-(3-Chloro-4-fluorophenyl)-7-(pyridin-4-yl)furo[2,3-c]pyridine-2,3-diamine] |  |  | 26%-38 |
